The record followed here is the Kinase Knowledgebase extract (Sharma et al. 2016).

Some results are limits rather than exact numbers.

Chain of PIK3CB (P42338 whole entry, looked up): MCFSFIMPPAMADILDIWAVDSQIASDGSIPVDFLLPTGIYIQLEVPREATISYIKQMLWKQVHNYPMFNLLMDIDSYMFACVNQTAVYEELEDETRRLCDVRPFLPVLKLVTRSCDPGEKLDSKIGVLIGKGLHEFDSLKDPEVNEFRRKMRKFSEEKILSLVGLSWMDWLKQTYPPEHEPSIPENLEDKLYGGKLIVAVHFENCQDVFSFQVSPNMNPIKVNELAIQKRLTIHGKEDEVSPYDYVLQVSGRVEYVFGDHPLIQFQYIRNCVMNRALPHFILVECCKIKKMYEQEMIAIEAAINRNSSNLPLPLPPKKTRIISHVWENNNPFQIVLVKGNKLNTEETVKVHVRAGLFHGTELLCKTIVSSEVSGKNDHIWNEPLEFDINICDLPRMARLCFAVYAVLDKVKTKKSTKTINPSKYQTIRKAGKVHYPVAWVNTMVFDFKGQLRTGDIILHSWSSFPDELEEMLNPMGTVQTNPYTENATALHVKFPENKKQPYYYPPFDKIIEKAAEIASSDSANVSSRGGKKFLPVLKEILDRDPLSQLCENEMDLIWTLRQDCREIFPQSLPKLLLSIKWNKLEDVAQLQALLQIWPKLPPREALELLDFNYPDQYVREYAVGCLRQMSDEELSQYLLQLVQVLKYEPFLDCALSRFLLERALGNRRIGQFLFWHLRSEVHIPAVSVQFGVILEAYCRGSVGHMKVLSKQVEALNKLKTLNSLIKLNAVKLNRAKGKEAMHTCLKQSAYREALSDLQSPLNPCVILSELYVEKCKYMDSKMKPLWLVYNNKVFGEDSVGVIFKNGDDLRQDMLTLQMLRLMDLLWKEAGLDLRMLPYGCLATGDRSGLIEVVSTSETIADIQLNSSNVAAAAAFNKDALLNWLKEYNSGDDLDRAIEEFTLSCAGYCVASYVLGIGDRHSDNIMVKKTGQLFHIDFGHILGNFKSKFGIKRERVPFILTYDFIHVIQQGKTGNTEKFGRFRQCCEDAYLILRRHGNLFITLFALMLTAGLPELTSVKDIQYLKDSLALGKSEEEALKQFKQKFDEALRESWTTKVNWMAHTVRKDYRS

In one assay the target is PIK3CA (bovine) (UniProt P32871). Put plainly: Inhibition of PIK3CA Kinase Activity.
Chain of PIK3CA (bovine) (P32871 whole entry, looked up): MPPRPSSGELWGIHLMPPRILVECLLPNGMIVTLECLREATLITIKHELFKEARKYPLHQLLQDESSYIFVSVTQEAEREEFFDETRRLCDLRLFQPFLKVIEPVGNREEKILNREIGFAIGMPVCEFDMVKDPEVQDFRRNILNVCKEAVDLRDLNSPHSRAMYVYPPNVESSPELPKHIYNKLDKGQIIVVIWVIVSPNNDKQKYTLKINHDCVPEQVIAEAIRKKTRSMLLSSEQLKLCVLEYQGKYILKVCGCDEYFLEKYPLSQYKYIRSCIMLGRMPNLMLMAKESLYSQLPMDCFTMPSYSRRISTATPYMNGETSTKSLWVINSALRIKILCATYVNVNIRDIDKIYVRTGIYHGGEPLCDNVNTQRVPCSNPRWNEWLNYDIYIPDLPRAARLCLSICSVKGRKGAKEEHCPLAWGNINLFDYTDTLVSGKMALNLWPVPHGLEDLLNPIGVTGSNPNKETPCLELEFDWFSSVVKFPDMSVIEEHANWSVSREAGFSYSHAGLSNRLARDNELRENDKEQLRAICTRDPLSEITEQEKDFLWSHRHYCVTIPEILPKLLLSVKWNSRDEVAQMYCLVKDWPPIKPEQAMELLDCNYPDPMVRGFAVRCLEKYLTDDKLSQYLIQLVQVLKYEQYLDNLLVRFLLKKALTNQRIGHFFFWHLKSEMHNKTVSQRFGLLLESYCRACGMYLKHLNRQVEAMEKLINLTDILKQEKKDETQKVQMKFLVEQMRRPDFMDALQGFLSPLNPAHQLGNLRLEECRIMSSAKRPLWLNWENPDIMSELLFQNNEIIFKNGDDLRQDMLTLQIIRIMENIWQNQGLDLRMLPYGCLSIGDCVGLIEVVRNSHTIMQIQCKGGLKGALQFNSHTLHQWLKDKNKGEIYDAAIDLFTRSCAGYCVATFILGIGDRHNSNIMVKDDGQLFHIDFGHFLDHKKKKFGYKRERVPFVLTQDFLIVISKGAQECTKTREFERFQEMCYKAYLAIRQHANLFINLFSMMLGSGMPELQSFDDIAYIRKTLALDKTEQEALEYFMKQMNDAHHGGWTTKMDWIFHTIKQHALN
Usually IC50 stands for the concentration needed to halve the response being measured. In turn, `Oc1ccc2nc(-c3ccccc3)nc(N3CCC(O)CC3)c2c1` showed an IC50 of 12 µM. In other words, the double-digit micromolar range.
The same measure, in the same setting: to `Oc1ccc2nc(-c3ccccc3)nc(N3CCOCC3)c2c1` belongs 1.3 µM.
Same read-out and setting: to `OCc1ccc(-c2nc(N3CCOCC3)c3cc(O)ccc3n2)cc1` belongs 3.7 µM; to `Oc1ccc2nc(-c3cccc(F)c3)nc(N3CCOCC3)c2c1`, 1.8 µM; to `Nc1cccc(-c2nc(N3CCOCC3)c3cc(O)ccc3n2)c1`, 0.44 µM.
Turning to `Oc1ccc(-c2nc(N3CCOCC3)c3cc(O)ccc3n2)cc1`, the IC50 is 2.8 µM.
As to `COc1ccc2nc(-c3ccccc3)nc(N3CCOCC3)c2c1`, the IC50 amounted to 2.1 µM. The IC50 values of the last two molecules are within 1.5-fold of each other.
Same read-out and setting: to `Oc1cccc(-c2nc(N3CCOCC3)c3ccncc3n2)c1` belongs 0.019 µM.
Molecule `Oc1cccc(-c2nc(N3CCOCC3)c3cnccc3n2)c1` showed a half-inhibitory concentration (IC50) of 0.013 µM.
Molecule `COCCNc1nc(-c2ccccc2)nc2ccc(O)cc12` came in with a 50% inhibitory concentration (IC50) of 15 µM.
Regarding `Oc1ccc2nc(-c3ccccc3)nc(N3CCCCC3)c2c1`, the half-maximal inhibitory concentration (IC50) was greater than 60 µM.
Same read-out and setting: as for `O=C1CCN(c2nc(-c3ccccc3)nc3ccc(O)cc23)CC1`, the figure is 21 µM.
`OCc1cccc(-c2nc(N3CCOCC3)c3cc(O)ccc3n2)c1` showed an IC50 of 0.1 µM.
Molecule `Oc1cccc(-c2nc(N3CCOCC3)c3ncccc3n2)c1` had an IC50 of 0.027 µM.
The same measure, in the same setting: to `Nc1ccccc1-c1nc(N2CCOCC2)c2cc(O)ccc2n1` belongs 3.9 µM; to `Oc1cccc2nc(-c3ccccc3)nc(N3CCOCC3)c12`, greater than 30 µM.
`Oc1cccc(-c2nc(N3CCOCC3)c3sccc3n2)c1` registered an IC50 of 0.002 µM.
Still for that read-out and setting: as for `Oc1cccc(-c2nc(N3CCOCC3)c3ccccc3n2)c1`, the figure is 0.056 µM.
`Oc1cccc(-c2nc(N3CCOCC3)c3cc(O)ccc3n2)c1` yielded an IC50 of 0.075 µM.
Same read-out and setting: as for `COc1cccc(-c2nc(N3CCOCC3)c3cc(O)ccc3n2)c1`, the figure is 0.6 µM; as for `c1ccc(-c2nc(N3CCOCC3)c3ccccc3n2)cc1`, 14 µM.
In the case of `Oc1ccc2nc(-c3ccccc3O)nc(N3CCOCC3)c2c1`, the half-inhibitory concentration (IC50) turned out to be 2.9 µM.
As to `Oc1ccc2c(N3CCOCC3)nc(-c3ccccc3)nc2c1`, the IC50 amounted to 9.8 µM.
`Nc1ccc(-c2nc(N3CCOCC3)c3cc(O)ccc3n2)cc1` returned an IC50 of 0.93 µM.

The next assay addresses PIK3CB (UniProt P42338). Briefly: Inhibition of PIK3CB Kinase Activity.
In the case of `Oc1cccc(-c2nc(N3CCOCC3)c3sccc3n2)c1`, the IC50 is 0.016 µM.

The target of a further assay is PIK3CG (UniProt P48736). Put plainly: Inhibition of PIK3CG Kinase Activity.
Chain of PIK3CG (P48736 whole entry, looked up): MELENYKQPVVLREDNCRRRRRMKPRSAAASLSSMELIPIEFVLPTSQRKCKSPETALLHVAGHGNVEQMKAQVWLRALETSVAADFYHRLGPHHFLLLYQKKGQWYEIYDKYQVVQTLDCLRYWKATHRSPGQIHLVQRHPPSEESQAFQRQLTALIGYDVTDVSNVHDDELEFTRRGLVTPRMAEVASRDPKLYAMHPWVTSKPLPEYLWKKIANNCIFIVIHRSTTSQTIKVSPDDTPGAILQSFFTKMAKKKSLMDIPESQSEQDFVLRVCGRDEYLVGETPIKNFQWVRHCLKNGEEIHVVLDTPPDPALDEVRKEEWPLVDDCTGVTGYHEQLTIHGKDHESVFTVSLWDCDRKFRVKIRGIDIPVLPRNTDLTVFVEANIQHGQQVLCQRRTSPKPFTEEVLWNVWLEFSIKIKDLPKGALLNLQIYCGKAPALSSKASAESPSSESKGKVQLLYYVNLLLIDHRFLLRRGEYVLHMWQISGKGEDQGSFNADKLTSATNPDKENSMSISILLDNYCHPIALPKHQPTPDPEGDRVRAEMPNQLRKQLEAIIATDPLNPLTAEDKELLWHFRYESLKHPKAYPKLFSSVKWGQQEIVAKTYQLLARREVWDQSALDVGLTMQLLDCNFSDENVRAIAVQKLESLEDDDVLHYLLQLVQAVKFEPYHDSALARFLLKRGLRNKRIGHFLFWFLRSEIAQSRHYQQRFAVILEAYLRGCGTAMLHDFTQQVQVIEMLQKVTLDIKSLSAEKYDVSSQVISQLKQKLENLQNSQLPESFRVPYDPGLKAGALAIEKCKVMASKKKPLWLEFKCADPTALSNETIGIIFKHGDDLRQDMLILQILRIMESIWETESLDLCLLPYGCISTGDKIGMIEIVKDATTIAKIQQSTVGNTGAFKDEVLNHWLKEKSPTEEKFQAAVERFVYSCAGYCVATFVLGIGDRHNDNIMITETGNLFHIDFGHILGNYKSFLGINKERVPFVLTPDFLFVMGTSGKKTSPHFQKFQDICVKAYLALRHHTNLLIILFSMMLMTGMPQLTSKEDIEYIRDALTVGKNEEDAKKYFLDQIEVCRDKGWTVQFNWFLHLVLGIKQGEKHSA
Turning to `Oc1cccc(-c2nc(N3CCOCC3)c3sccc3n2)c1`, the IC50 worked out at 0.66 µM.

For another assay, the target named is CDK2 (UniProt P24941). Briefly: Enzyme Assay.
In turn, `Oc1cccc(-c2nc(N3CCOCC3)c3sccc3n2)c1` displayed an IC50 of 28 µM.
